# Source: PMC7966987, “Insights into the catalytic properties of the mitochondrial rhomboid protease PARL” (The Journal of Biological Chemistry, 2021)
# Where two headings read alike, the source gives them in different places.
# T1: PARLΔ77 (Homo sapiens, UniProt Q9H300)
# T1 construct: GFP-hexahistidine (behind a TEV cleavage site) (C, cleaved yes); made in house; host or cells: Pichia pastoris
# T1 sequence (Q9H300 78-379): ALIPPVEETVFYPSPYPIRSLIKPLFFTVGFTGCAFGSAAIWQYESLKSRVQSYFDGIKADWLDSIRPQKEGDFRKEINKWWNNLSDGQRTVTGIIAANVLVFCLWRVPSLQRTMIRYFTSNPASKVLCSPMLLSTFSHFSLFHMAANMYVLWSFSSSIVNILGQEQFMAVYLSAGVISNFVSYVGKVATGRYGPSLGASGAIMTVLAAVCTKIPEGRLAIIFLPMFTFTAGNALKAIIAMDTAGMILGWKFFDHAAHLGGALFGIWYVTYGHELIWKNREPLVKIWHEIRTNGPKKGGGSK
# B1: HiGlpG: bacterial rhomboid protease from Haemophilus influenzae (protein, UniProt P44783 1-192, looked up)
# Rhomboid protease GlpG: MKNFLAQQGKITLILTALCVLIYLAQQLGFEDDIMYLMHYPAYEEQDSEVWRYISHTLVHLSNLHILFNLSWFFIFGGMIERTFGSVKLLMLYVVASAITGYVQNYVSGPAFFGLSGVVYAVLGYVFIRDKLNHHLFDLPEGFFTMLLVGIALGFISPLFGVEMGNAAHISGLIVGLIWGFIDSKLRKNSLE
# B2: GlpG: E. coli rhomboid protease (protein, UniProt P09391 1-276, looked up)
# Rhomboid protease GlpG: MLMITSFANPRVAQAFVDYMATQGVILTIQQHNQSDVWLADESQAERVRAELARFLENPADPRYLAASWQAGHTGSGLHYRRYPFFAALRERAGPVTWVMMIACVVVFIAMQILGDQEVMLWLAWPFDPTLKFEFWRYFTHALMHFSLMHILFNLLWWWYLGGAVEKRLGSGKLIVITLISALLSGYVQQKFSGPWFGGLSGVVYALMGYVWLRGERDPQSGIYLQRGLIIFALIWIVAGWFDLFGMSMANGAHIAGLAVGLAMAFVDSLNARKRK
# B3: AarA: bacterial rhomboid protease from P. stuartii (protein, UniProt P46116 1-281, looked up)
# Rhomboid protease AarA: MAEQQNPFSIKSKARFSLGAIALTLTLVLLNIAVYFYQIVFASPLDSRESNLILFGANIYQLSLTGDWWRYPISMMLHSNGTHLAFNCLALFVIGIGCERAYGKFKLLAIYIISGIGAALFSAYWQYYEISNSDLWTDSTVYITIGVGASGAIMGIAAASVIYLIKVVINKPNPHPVIQRRQKYQLYNLIAMIALTLINGLQSGVDNAAHIGGAIIGALISIAYILVPHKLRVANLCITVIAASLLTMMIYLYSFSTNKHLLEEREFIYQEVYTELADANQ
# How the values were obtained:
# [1] = molecular target: T1, PARLΔ77; test: Multiplex substrate profiling by mass spectrometry (MSP-MS), PARLΔ77 in proteoliposomes; type: biochemical; conditions: PARLΔ77 1 μM in PL containing PC, PE and CL, peptides 0.5 μM each, pH 7.0, without DDM, LC-MS/MS, quadruplicate; for FC_60min (fold change of cleavage product, Annotated_Sequence): 60 vs 0 min; for FC_240min (fold change of cleavage product, Annotated_Sequence): 240 vs 0 min
# Description: (§1) Multiplex substrate profiling by mass spectrometry (MSP-MS) assays was performed in quadruplicate. In total, 1 μM of PARLΔ77 was incubated with an equimolar mixture of 228 synthetic tetradecapeptides at a final concentration of 0.5 μM for each peptide in 50 mM Tris-HCl pH 7.0, 150 mM NaCl, 10% glycerol, with or without 0.1% DDM. The sequence of each peptide is listed in Supplementary Data File. These peptides have been validated as substrates for a wide variety of proteolytic enzymes (PMID 23023596, 24073241, 25944934) including bacterial rhomboid proteases (30705125). For each assay, 20 μl of the reaction mixture was removed after 0, 60, and 240 min of incubation. Enzyme activity was quenched by adding GuHCl (MP Biomedicals) to a final concentration of 6.4 M, and samples were immediately stored at –80 °C. All samples were desalted using C18 spin columns and dried by vacuum centrifugation.
# (§2) Approximately 2 μg of peptides was injected into a Q-Exactive Mass Spectrometer (Thermo) equipped with an Ultimate 3000 HPLC. Peptides were separated by reverse-phase chromatography on a C18 column (1.7 μm bead size, 75 μm × 25 cm, 65 °C) at a flow rate of 300 nl/min using a 60-min linear gradient from 5% to 30% B, with solvent A: 0.1% formic acid in water and solvent B: 0.1% formic acid in acetonitrile. Survey scans were recorded over a 150–2000 m/z range (70,000 resolutions at 200 m/z, AGC target 3 × 10^6, 100 ms maximum). MS/MS was performed in data-dependent acquisition mode with HCD fragmentation (28 normalized collision energy) on the 12 most intense precursor ions (17,500 resolutions at 200 m/z, AGC target 1 × 10^5, 50 ms maximum, dynamic exclusion 20 s).
# (§3) Data was processed using PEAKS 8.5 (Bioinformatics Solutions Inc). MS^2 data were searched against the 228 tetradecapeptide library sequences with decoy sequences in reverse order. A precursor tolerance of 20 ppm and 0.01 Da for MS^2 fragments was defined. No protease digestion and modification were specified. Data were filtered to 1% peptide-level false discovery rates with the target-decoy strategy. Peptides were quantified with label-free quantification and data are normalized by medians and filtered by 0.3 peptide quality. Missing and zero values are imputed with random normally distributed numbers in the range of the average of smallest 5% of the data ± SD. Cleaved sequences were defined as peptide products that increase by a fold change of >8 and q value <0.05 (by Student t test) between 0 min and 240 min. IceLogo software was used for visualization of amino-acid frequency surrounding the cleavage sites. Amino acids that were most frequently observed (above axis) and least frequently observed (below axis) from P4 to P4ʹ positions were illustrated. Norleucine (Nle) was represented as “n” in the reported profiles. Mass spectrometry data and searching results have been deposited in MassIVE with accession number, MSV000085295.
# [2] = molecular target: T1, PARLΔ77; test: Multiplex substrate profiling by mass spectrometry (MSP-MS), PARLΔ77 in DDM; type: biochemical; conditions: PARLΔ77 1 μM, 0.1% DDM, peptides 0.5 μM each, LC-MS/MS, quadruplicate; for FC_60min (fold change of cleavage product, Annotated_Sequence): pH 7.0, 60 vs 0 min; for FC_240min (fold change of cleavage product, Annotated_Sequence): pH 7.0, 240 vs 0 min
# Description: as §1, §2, §3
# [3] = molecular target: T1, PARLΔ77; test: Lipid effect on PARLΔ77 cleavage of FRET-PINK1(70-134); type: biochemical; conditions: vs no lipid, N = 4
# Description: Lipids are known to influence membrane protein function ([29]). In mitochondria, for example, increased CL amounts are observed during mitochondrial stress, which influences protein function at the molecular level ([30]). Therefore, we assessed the effect of the three primary lipids present in the IMM, namely CL, phosphatidylcholine (POPC), and phosphatidylethanolamine (POPE) on PARLΔ77 activity with the FRET-PINK^70–134 substrate (Fig. 1D) ([31]). The lipid-free conditions were used as a baseline and consisted of PARLΔ77 reconstituted in detergent (DDM) micelles, while all lipid conditions consisted of a mixed detergent-lipid micelle system. First we assess the effect of different classes of lipids. […] In order to precisely determine the optimal concentration of CL for PARL activity, the initial velocities of PARL-mediated cleavage of FRET-PINK1^70–134 were measured in the presence of increasing concentrations of CL. […] Therefore, CL was included in all subsequent protein preparations of detergent-solubilized PARL at the last purification step.
# Figure S5. The dependence of PA R LΔ77activity on CL concentration. The initial velocities of PA R LΔ77weremeasuredin the presence of different molar ratios of CL using FRET-PINK170-134 substrate. One-way ANOVA with multiple comparisons was performed between the no-lipid condition and each molar ratio of CL:protein to determine if differences observed were significant. A total of five experimental replicates performed in duplicate were used for data analysis (N = 5). Individual data points (black dots) are indicated on the bar graphs, representing the mean ±SEM
# (1 picture or pasted object on this page, not shown here)
# [4] = tested on: preferred substrates; conditions: cited from earlier work
# Description: The bacterial rhomboid proteases from Haemophilus influenzae (HiGlpG) and P. stuartii (AarA) cleave at a rate of roughly two per minute for their preferred substrates in DDM, while the E. coli rhomboid protease GlpG cleaves slowly in DDM, much like PARL, at a rate of approximately six per hour and with a rate of 2.5 min^−1 in PLs ([26], [34], [35]).
# [5] = lipid at molar ratio 50:1, mixed detergent (DDM)-lipid micelles
molecule,measurement,setting,value
"AETSIKVFMPYYGH [TDP91, synthetic tetradecapeptide of the 228-peptide library]","FC_60min (fold change of cleavage product, Annotated_Sequence)",[1],43.5042
same,"FC_240min (fold change of cleavage product, Annotated_Sequence)",[1],295.878
"AMTDRGWYLAIQAV [TDP15, synthetic tetradecapeptide of the 228-peptide library]","FC_60min (fold change of cleavage product, Annotated_Sequence)",[2]; TDP160: product INDFLVR.T,247.32
same,"FC_240min (fold change of cleavage product, Annotated_Sequence)",[2]; TDP160: product INDFLVR.T,689.515
"GPKLTYDFWIQNLP [TDP89, synthetic tetradecapeptide of the 228-peptide library]","FC_60min (fold change of cleavage product, Annotated_Sequence)",[2]; TDP160: product INDFLVR.T,270.23
same,"FC_240min (fold change of cleavage product, Annotated_Sequence)",[2]; TDP160: product INDFLVR.T,1077.04
"GQYPMFVKISTTHW [TDP96, synthetic tetradecapeptide of the 228-peptide library]","FC_60min (fold change of cleavage product, Annotated_Sequence)",[1],35.4935
same,"FC_240min (fold change of cleavage product, Annotated_Sequence)",[1],328.605
"INDFLVRTWKMPGL [TDP160, synthetic tetradecapeptide of the 228-peptide library]","FC_60min (fold change of cleavage product, Annotated_Sequence)",[2]; TDP160: product INDFLVR.T,264.961
same,"FC_240min (fold change of cleavage product, Annotated_Sequence)",[2]; TDP160: product INDFLVR.T,895.528
same,"FC_60min (fold change of cleavage product, Annotated_Sequence)",[2]; product F.LVRTWKLPGL,150.552
same,"FC_240min (fold change of cleavage product, Annotated_Sequence)",[2]; product F.LVRTWKLPGL,507.811
"MHSPWTMANFLRGP [TDP94, synthetic tetradecapeptide of the 228-peptide library]","FC_60min (fold change of cleavage product, Annotated_Sequence)",[2]; TDP160: product INDFLVR.T,682.585
same,"FC_240min (fold change of cleavage product, Annotated_Sequence)",[2]; TDP160: product INDFLVR.T,2284.43
same,"FC_60min (fold change of cleavage product, Annotated_Sequence)",[1],254.488
same,"FC_240min (fold change of cleavage product, Annotated_Sequence)",[1],1890.88
"NVDWTAPQLIEYLD [TDP138, synthetic tetradecapeptide of the 228-peptide library]","FC_60min (fold change of cleavage product, Annotated_Sequence)",[1],42.87
same,"FC_240min (fold change of cleavage product, Annotated_Sequence)",[1],40.3813
"QAVRPNGMYWHYLM [TDP216, synthetic tetradecapeptide of the 228-peptide library]","FC_60min (fold change of cleavage product, Annotated_Sequence)",[1],43.2174
same,"FC_240min (fold change of cleavage product, Annotated_Sequence)",[1],200.338
cardiolipin [CL],effect on PARL activity,[3]; [5],significant increase in PARL activity
phosphatidylethanolamine [POPE],effect on PARL activity,[3]; [5],did not significantly increase PARL activity
same,effect on PARL activity,"[3]; lipid at molar ratio 100:1, mixed detergent (DDM)-lipid micelles",did not significantly increase PARL activity
B1,cleavage rate,"[4]; preferred substrates, in DDM",roughly two
B2,cleavage rate,[4]; in DDM,approximately six
same,cleavage rate,[4]; in PLs,2.5 min⁻¹
B3,cleavage rate,"[4]; preferred substrates, in DDM",roughly two
